Data from publication PMC7805408, “Filaggrin Polymorphisms and the Uptake of Chemicals through the Skin—A Human Experimental Study” (Environmental Health Perspectives, 2021).

Experiments:
[1] = design: method as in Okereke et al. 1993; details: rats; ref Okereke et al. 1993; cited from earlier work
[2] = test system: estrogen receptor 1, androgen receptor, and cytochrome P450 aromatase B; design: method as in Blüthgen et al. 2012; details: zebrafish, 84μg/L; ref Blüthgen et al. 2012; cited from earlier work
[3] = design: method as in Santamaria et al. 2020; details: ref Santamaria et al. 2020; cited from earlier work
[4] = Population toxicokinetic analysis of dermal absorption and disposition (three-compartment model, Monolix); assay type: in vivo, human; details: for Lag time (mean±SD): dermal absorption; for Lag time (mean±SD) / Absorption rate constant (mean±SD): unadjusted; for Absorption rate constant (mean±SD): dermal; for Rate constant K21 (mean ± SD): from the central to the peripheral compartment; for Rate constant K12 (mean ± SD): from the peripheral to the central compartment
Protocol: Dermal absorption and disposition were assessed by population toxicokinetic analysis. A three-compartment structural model representing skin and central and peripheral tissues was used (Figure 2). The skin compartment encompasses a lag time for skin penetration ( Tlag ) and an absorption rate constant ( ka ). Urinary excretion from the central compartment was described by an elimination rate constant ( ke ), and exchange between the central and peripheral compartments was described by two rate constants ( k12 and k21 ). All rate constants are first order.
Figure 2. Compartmental model used in the toxicokinetic analysis: lag time for skin penetration ( Tlag , h), first order skin absorption constant ( Ka , h-1), volume of central compartment (V, L), peripheral compartment (P) first order transfer rate constants ( k12 and k21 , h^−1 ), and first order elimination rate constant (k, h^−1 ).
The input data were the dermally applied dose (nmol) at time zero and the mid–time point (h) and the excretion rate (nmol/h) of each chemical in the urine samples. Subjects excluded from the AUC analysis were also excluded from the toxicokinetic analysis (one FLG null carrier and one wt carrier for oxybenzone).
The software Monolix (version 2019R2; Lixoft) was used to estimate the model parameters. The built-in statistical model consists of an observation model and an individual model based on the structural toxicokinetic model. The observational model was set to a normal distribution, and a residual error model included in the observational model was used as proposed by the software after initial analysis. A lognormally distributed random effect was added to all model parameters. Correlations between parameters were accounted for if proposed by the software. The different genotypes (FLG null/wt, and FLG null/wt CNV20–22/wt CNV23–24) were entered as categorical covariates.

[5] = ref http://www.popstoolkit.com/tools/HHRA/TDI_USEPA.aspx; cited from earlier work
[6] = in vivo, po; cited from earlier work
[7] = test system: aryl hydrocarbon receptor; design: method as in Medjakovic et al. 2014; details: in vitro; ref Medjakovic et al. 2014; cited from earlier work
[8] = ref https://efsa.onlinelibrary.wiley.com/doi/pdf/10.2903/j.efsa.2006.61r; cited from earlier work
[9] = FLG null carriers, null/CNV grouping
[10] = FLG null, null vs wt grouping (Table S4)
[11] = FLG null, null/CNV grouping (Table S9)
[12] = FLG wt, null vs wt grouping (Table S4)

Structure (SMILES)	Absorption rate constant (mean ± SD), adjusted for BMI, age and sex ([4]; FLG null (Table S7)) [h⁻¹]	Lag time (mean ± SD), adjusted for BMI, age and sex ([4]; FLG null (Table S7)) [h]	Excretion rate constant K (mean ± SD) ([4]; FLG null (Table S9)) [h⁻¹]	Lag time (mean±SD) [4, 9] [h]	Absorption rate constant (mean±SD) [4, 9] [h⁻¹]	Dermal absorption rate constant (mean ± SD) [4, 10] [h⁻¹]	Lag time for dermal absorption (mean ± SD) [4, 10] [h]	Volume of central compartment (mean ± SD) [4, 11] [L]	Absorption rate constant (mean ± SD), adjusted for BMI, age and sex ([4]; FLG wt CNV20–22 (Table S7)) [h⁻¹]	Lag time (mean ± SD), adjusted for BMI, age and sex ([4]; FLG wt CNV20–22 (Table S7)) [h]	Excretion rate constant K (mean ± SD) ([4]; FLG wt CNV20–22 (Table S9)) [h⁻¹]	Volume of central compartment (mean ± SD) ([4]; FLG wt CNV20–22 (Table S9)) [L]	Lag time (mean±SD) ([4]; FLG wt CNV20–22 carriers) [h]	Absorption rate constant (mean±SD) ([4]; FLG wt CNV20–22 carriers) [h⁻¹]	Absorption rate constant (mean ± SD), adjusted for BMI, age and sex ([4]; FLG wt CNV23–24 (Table S7)) [h⁻¹]	Lag time (mean ± SD), adjusted for BMI, age and sex ([4]; FLG wt CNV23–24 (Table S7)) [h]	Excretion rate constant K (mean ± SD) ([4]; FLG wt CNV23–24 (Table S9)) [h⁻¹]	Volume of central compartment (mean ± SD) ([4]; FLG wt CNV23–24 (Table S9)) [L]	Lag time (mean±SD) ([4]; FLG wt CNV23–24 carriers) [h]	Absorption rate constant (mean±SD) ([4]; FLG wt CNV23–24 carriers)	also measured
COc1ccc(C(=O)c2ccccc2)c(O)c1 [Oxybenzone, (2-Hydroxy-4-methoxyphenyl)-phenylmethanone]	0.22 ± 0.06	0.14 ± 0.18	0.05 ± 0.02	0.07 ± 0.01	0.23 ± 0.07	0.29 ± 0.08	0.10 ± 0.02	71.5 ± 32.4	0.20 ± 0.06	0.04 ± 0.04	0.05 ± 0.01	81.5 ± 42.7	0.04 ± 0.009	0.22 ± 0.08	0.13 ± 0.04	0.13 ± 0.17	0.06 ± 0.04	103 ± 52.36	0.23 ± 0.13	0.13 ± .04 h⁻¹	Share of what was found in urine in the form of the parent compound, free and conjugated with glucuronic acid [1]: About 50%; Expression of estrogen receptor 1, androgen receptor, and cytochrome P450 aromatase B [2]: decreased expression; Effect in mice [3]: affect fetal growth and sex ratio; Dermal absorption rate constant (mean ± SD) [4, 12]: 0.22 ± 0.09 h⁻¹; Lag time for dermal absorption (mean ± SD) [4, 12]: 0.13 ± 0.07 h; Mean dermal absorption rate constant higher for FLG null carriers than wt carriers with CNV23–24 ([4]; Table 2): 77%; Rate constant K21 (mean ± SD) ([4]; FLG null (Table S9)): 0.01 ± 0.006 h⁻¹; Rate constant K21 (mean ± SD) ([4]; FLG wt CNV20–22 (Table S9)): 0.01 ± 0.008 h⁻¹; Rate constant K21 (mean ± SD) ([4]; FLG wt CNV23–24 (Table S9)): 0.007 ± 0.003 h⁻¹; Rate constant K12 (mean ± SD) ([4]; FLG null (Table S9)): 0.31 ± 0.02 h⁻¹; Rate constant K12 (mean ± SD) ([4]; FLG wt CNV20–22 (Table S9)): 0.31 ± 0.02 h⁻¹; Rate constant K12 (mean ± SD) ([4]; FLG wt CNV23–24 (Table S9)): 0.32 ± 0.02 h⁻¹; Dermal absorption rate constant higher for FLG null compared with wt carriers ([4]; null vs wt grouping (Table S4)): 32%
c1cc2ccc3cccc4ccc(c1)c2c34 [Pyrene, pyrene]	0.23 ± 0.09	0.89 ± 0.15	0.17 ± 0.02	0.91 ± 0.12	0.16 ± 0.05	0.17 ± 0.06	0.88 ± 0.13	876 ± 344	0.23 ± 0.10	1.06 ± 0.17	0.18 ± 0.04	954 ± 410	1.06 ± 0.16	0.14 ± 0.03	0.14 ± 0.05	1.34 ± 0.32	0.18 ± 0.02	1232 ± 541	1.41 ± 0.29	0.11 ± 0.03 h⁻¹	tolerable daily intake (TDI) [5]: 0.03 mg/kg; Dermal absorption rate constant (mean ± SD) [4, 12]: 0.15 ± 0.06 h⁻¹; Lag time for dermal absorption (mean ± SD) [4, 12]: 1.20 ± 0.25 h; Mean dermal absorption rate constant higher for FLG null carriers than wt carriers with CNV23–24 ([4]; Table 2): 45%; Rate constant K21 (mean ± SD) ([4]; FLG null (Table S9)): 0.02 ± 0.0008 h⁻¹; Rate constant K21 (mean ± SD) ([4]; FLG wt CNV20–22 (Table S9)): 0.02 ± 0.0006 h⁻¹; Rate constant K21 (mean ± SD) ([4]; FLG wt CNV23–24 (Table S9)): 0.02 ± 0.0005 h⁻¹; Rate constant K12 (mean ± SD) ([4]; FLG null (Table S9)): 0.12 ± 0.04 h⁻¹; Rate constant K12 (mean ± SD) ([4]; FLG wt CNV20–22 (Table S9)): 0.12 ± 0.03 h⁻¹; Rate constant K12 (mean ± SD) ([4]; FLG wt CNV23–24 (Table S9)): 0.11 ± 0.02 h⁻¹
Cc1cc(C)nc(Nc2ccccc2)n1 [Pyrimethanil, 4,6-dimethyl-N-phenyl-2-pyrimidinamine]	–	–	–	–	–	–	–	–	–	–	–	–	–	–	–	–	–	–	–	–	Share of the compound found in urine as OH-pyrimethanil [6]: 80%; Dermal absorption rate constant higher for FLG null compared with wt carriers ([4]; human, in vivo): 18%; Mean dermal absorption rate constant higher for FLG null carriers than wt carriers with CNV23–24 ([4]; human, in vivo): 50%; aryl hydrocarbon receptor activity [7]: aryl hydrocarbon receptor agonist; acute toxicity [8]: low acute toxicity
